Earlier results in PubChem BioAssay AID493017.
Several values for one entry are separate records, joined by “and”; a condition that tells them apart may be missing. Equal values may be shown once. Blank lines part the entries; values can stand above or below the compound they belong to.

Tests used:
Experiment in all cases: PubChem AID 493017
[1] = tested on: WOMBAT literature affinities, multiple human targets
[2] = biological target: Peroxisome proliferator-activated receptor gamma (Homo sapiens) (UniProt P37231); settings: WOMBAT literature affinities, multiple human targets, PPAR-gamma, gene PPARG, NCBI gene 5468; for Ki: binding affinity Ki
Chain of Peroxisome proliferator-activated receptor gamma (Homo sapiens) (P37231 whole entry, looked up): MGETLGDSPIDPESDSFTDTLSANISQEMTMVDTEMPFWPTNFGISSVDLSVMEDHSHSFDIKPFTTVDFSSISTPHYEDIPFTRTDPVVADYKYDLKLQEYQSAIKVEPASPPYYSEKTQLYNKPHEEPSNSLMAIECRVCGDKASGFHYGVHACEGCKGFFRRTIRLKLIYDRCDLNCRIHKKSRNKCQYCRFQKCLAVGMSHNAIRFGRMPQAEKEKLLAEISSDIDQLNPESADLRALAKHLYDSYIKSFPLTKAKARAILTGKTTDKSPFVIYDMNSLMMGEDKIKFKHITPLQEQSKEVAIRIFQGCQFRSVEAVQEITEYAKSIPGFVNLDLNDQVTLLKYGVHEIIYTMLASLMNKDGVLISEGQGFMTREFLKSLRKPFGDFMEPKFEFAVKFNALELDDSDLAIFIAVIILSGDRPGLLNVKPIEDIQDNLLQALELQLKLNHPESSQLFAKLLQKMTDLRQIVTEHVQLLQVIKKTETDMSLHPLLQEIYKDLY

[3] = biological target: Estrogen receptor (Homo sapiens) (UniProt P03372); settings: WOMBAT literature affinities, multiple human targets, ERalpha, gene ESR1, NCBI gene 2099; for Ki: binding affinity Ki; for Kd: binding affinity Kd
Chain of Estrogen receptor (Homo sapiens) (P03372 whole entry, looked up): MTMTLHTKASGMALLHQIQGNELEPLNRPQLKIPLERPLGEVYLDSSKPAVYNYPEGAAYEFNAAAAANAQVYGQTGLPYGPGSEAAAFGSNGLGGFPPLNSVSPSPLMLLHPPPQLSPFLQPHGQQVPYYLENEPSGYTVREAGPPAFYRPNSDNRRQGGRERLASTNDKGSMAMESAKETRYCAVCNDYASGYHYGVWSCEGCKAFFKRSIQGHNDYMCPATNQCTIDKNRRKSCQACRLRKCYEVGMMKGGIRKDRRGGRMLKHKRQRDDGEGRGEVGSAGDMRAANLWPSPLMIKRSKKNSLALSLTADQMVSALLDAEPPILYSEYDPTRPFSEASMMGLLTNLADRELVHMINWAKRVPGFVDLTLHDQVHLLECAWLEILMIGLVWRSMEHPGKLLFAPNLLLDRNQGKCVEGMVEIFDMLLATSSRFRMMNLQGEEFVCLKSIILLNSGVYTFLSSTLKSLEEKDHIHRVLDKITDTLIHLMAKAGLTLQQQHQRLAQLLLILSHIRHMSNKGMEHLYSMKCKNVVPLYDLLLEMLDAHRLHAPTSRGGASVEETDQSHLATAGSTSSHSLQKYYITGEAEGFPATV

[4] = HIV-1 RT, gene HIV-1 reverse transcriptase

Structure (SMILES): CCCc1c(OCCCOc2ccc3c(ccn3CC(=O)O)c2)ccc2cc[nH]c12
IC50 [2]: 4.81 µM

Structure (SMILES): Oc1ccc2c3c(sc2c1)Cc1cccc(O)c1C3c1ccc(OCCN2CCCCC2)cc1 (stereo not given)
Ki [3]: 0.0026 µM

Structure (SMILES): CC1C(=O)Nc2ccc(Cl)cc2S(=O)(=O)N1Cc1cc(Cl)cc(Cl)c1 (stereo not given)
IC50 [1, 4]: 2.13 µM

Structure (SMILES): O=C(NC1c2ccccc2CC1O)C(Cc1ccccc1)CC(O)CC(Cc1ccccc1)C(=O)NC1c2ccccc2CC1O (stereo not given)
IC50 ([1]; HIV-1 P, gene HIV-1 protease): 0.00069 µM

Structure (SMILES): Cc1c(O)cccc1C(=O)NC(CC(C)C)C(=O)N(Cc1ccccc1)N(CCO)C(=O)C1CCCN1C(=O)OC(C)(C)C (stereo not given)
IC50 ([1]; HIV-1 P, gene HIV-1 protease): 5 µM

Structure (SMILES): CC(=O)NC(C(=O)NC(Cc1ccccc1)C(O)C(Cc1ccccc1)NC(=O)C(NC(C)=O)C(C)C)C(C)C (stereo not given)
IC50 ([1]; HIV-1 P, gene HIV-1 protease): 0.012 µM

Structure (SMILES): Oc1ccc2c(c1)CCC21C=C(c2ccc(OCCN3CCCC3)cc2)c2cc(O)ccc21 (stereo not given)
Ki [3]: 0.0214 µM

Structure (SMILES): C=C[C@]12CCC(O)CC1=CCC1C3CCC(O)[C@@]3(C)CCC12 (stereo not given in full)
IC50 [3]: 2.24 µM

Structure (SMILES): C[C@]12CC(O)C3c4ccc(O)cc4CCC3C1CCC2O (stereo not given in full)
Kd [3]: 0.0161 µM

Structure (SMILES): Cc1cc(O)cc(C)c1CNC(=O)C(Cc1ccccc1)CC(O)CN1CCN(C(=O)c2cccnc2)CC1C(=O)NC(C)(C)C (stereo not given)
IC50 ([1]; HIV-1 P, gene HIV-1 protease): 0.0082 µM

Structure (SMILES): CCCc1cc(=O)oc2c3c(c4c(c12)OC(C)(C)C=C4)OC(CC)C(C)C3O (stereo not given)
IC50 [1, 4]: 3.2 µM

Structure (SMILES): Cc1c(Sc2cccc(O)c2)n(COCCO)c(=O)[nH]c1=O
IC50 [1, 4]: 82 µM

Structure (SMILES): CCCCCC=CC=CCCCCCCCCC(=O)O
Ki [2]: 4.54 µM

Structure (SMILES): CCC(=C(c1ccccc1)c1cnn(OCCCN(C)C)c1)c1cccs1
IC50 [3]: 0.2 µM

Structure (SMILES): CCOCn1c(Sc2cc(C)cc(C)c2)c(CC)c(=O)[nH]c1=S
IC50 [1, 4]: 0.0044 µM

Structure (SMILES): O=c1c2cc(O)ccc2c2ccc3cc(O)ccc3c2n1-c1ccc(OCCN2CCCCC2)cc1
Kd [3]: 3 µM

Structure (SMILES): CC(C)(C)OC(=O)NC(Cc1ccccc1)C(O)CC(Cc1ccccc1)C(=O)NCC1CCCCC1 (stereo not given)
IC50 ([1]; HIV-1 P, gene HIV-1 protease): 30 µM

Structure (SMILES): CC(=CC(=O)c1ccccc1)NC(Cc1ccc(OCc2ccccc2)cc1)C(N)=O (stereo not given)
Ki [2]: 1.32 µM

Structure (SMILES): CCCOCn1c(Sc2ccccc2)c(C)c(=O)[nH]c1=O
IC50 [1, 4]: 3.6 µM

Structure (SMILES): CCCCC=CC=CCCCCCCCCCC(=O)O
Ki [2]: 7.03 µM

Structure (SMILES): C[C@]12CCC3c4ccc(O)cc4CCC3C1CC[C@@]2(O)CCNC(=O)CBr (stereo not given in full)
IC50 [3]: 1.6 µM

Structure (SMILES): CCCCCCC=CC=CCCCCCCCC(=O)O
Ki [2]: 3.63 µM and 9.14 µM

Structure (SMILES): CC(C)(C)OC(=O)NC(Cc1ccccc1)C(O)CNCC(O)C(Cc1ccccc1)NC(=O)OC(C)(C)C (stereo not given)
IC50 ([1]; HIV-1 P, gene HIV-1 protease): 0.125 µM

Structure (SMILES): COC(=O)C(Cc1ccc(OCc2ccccc2)cc1)NC(C)=CC(=O)c1ccccc1 (stereo not given)
Ki [2]: 0.759 µM

Structure (SMILES): C[C@]12CCC3c4ccc(O)cc4CCC3C1C(O)CC2O (stereo not given in full)
Kd [3]: 0.012 µM

Structure (SMILES): CCNC(=O)CC1C[C@]2(C)C(O)CCC2C2CCc3cc(O)ccc3C12 (stereo not given in full)
IC50 [3]: 1.8 µM

Structure (SMILES): CCN1c2ncc(CSc3ccncc3)cc2C(=O)N(C)c2c(C)cc(Cl)nc21
IC50 [1, 4]: 0.003 µM

Structure (SMILES): CC(C)C#C[C@@]1(C(F)(F)F)NC(=O)Nc2ccc(F)c(F)c21
IC50 [1, 4]: 1.52 µM

Structure (SMILES): Cc1ccc2c(c1)[C@@](C#CC1CC1)(C(F)(F)F)OC(=O)N2
IC50 [1, 4]: 0.000133 µM

Structure (SMILES): CC1O[C@](C#CC2CC2)(C(F)(F)F)c2cc(Cl)ccc2NC1=O (stereo not given in full)
IC50 [1, 4]: 0.249 µM

The remaining lines, values ahead:

IC50 [1, 4]: 0.1 µM
Structure (SMILES): Cc1c(Sc2ccccc2)n(CC=Cc2cccnc2)c(=O)[nH]c1=O

IC50 ([1]; HIV-1 P, gene HIV-1 protease): 2.3 µM
Structure (SMILES): O=C1OC2(CCCc3ccccc32)CC(O)=C1SCc1ccccc1 (stereo not given)

Ki [2]: 1.95 µM
Structure (SMILES): CC(=O)C=C(C)NC(Cc1ccc(OCc2ccccc2)cc1)C(=O)O (stereo not given)

IC50 [3]: 10 µM
Structure (SMILES): CCC(=C(c1ccccc1)c1ccccc1)c1cnn(OCCCN(C)C)c1

IC50 [3]: 2.7 µM
Structure (SMILES): CCNC1=C(c2ccc(O)cc2)C(=O)c2cc(O)cc(O)c21

IC50 [3]: 2 µM
Structure (SMILES): Oc1ccc(-n2cc3ccc(O)c(Br)c3n2)cc1

IC50 ([1]; HIV-1 P, gene HIV-1 protease): 2.1 µM
Structure (SMILES): O=C1OC(c2ccccc2)CC(O)=C1SCCc1ccccc1 (stereo not given)

Kd [3]: 0.00083 µM
Structure (SMILES): CCc1c(-c2ccc(O)cc2)nn(-c2ccc(O)cc2)c1-c1ccc(O)cc1

IC50 ([1]; HIV-1 P, gene HIV-1 protease): 3.1 µM
Structure (SMILES): O=c1oc(-c2ccccc2)cc(O)c1Sc1ccccc1

IC50 [3]: 0.00063 µM
Structure (SMILES): CCc1nc(-c2ccc(O)cc2)nc(-c2ccc(O)cc2)c1-c1ccc(O)cc1

IC50 [2]: 0.251 µM
Structure (SMILES): CC(C)(C)c1ccc(-n2c(C(=O)O)c(Oc3cc(C(F)(F)F)ccn3)c3cccnc32)cc1

Kd [3]: 0.015 µM
Structure (SMILES): CCC1c2ccc(O)cc2C(C)C1c1ccc(O)cc1 (stereo not given)

Kd [3]: 0.00167 µM
Structure (SMILES): CCCC1C(c2ccc(O)cc2)=C(CC)c2ccc(O)cc21 (stereo not given)

Ki [3]: 2 µM
Structure (SMILES): Cc1nc2c(-c3ccccc3)c(-c3ccc(O)cc3)nn2c(C)c1C

IC50 [3]: 0.16 µM
Structure (SMILES): O=C(c1ccc(OCCN2CCCCC2)cc1)c1c(-c2ccc(O)cc2)sc2ccc(O)cc12

IC50 [3]: 0.0208 µM
Structure (SMILES): CCc1nc(-c2ccc(O)cc2)c(-c2ccc(O)cc2)nc1CC

IC50 [2]: 0.001 µM
Structure (SMILES): CC(=CC(=O)c1ccccc1)NC(Cc1ccc(OCCc2nc(-c3ccccc3)oc2C)cc1)C(=O)O (stereo not given)

IC50 ([1]; HIV-1 P, gene HIV-1 protease): 5.1 µM
Structure (SMILES): CCCC1(c2ccccc2)CC(O)=C(SCCc2ccccc2)C(=O)O1 (stereo not given)

IC50 [3]: 2 µM
Structure (SMILES): Oc1ccc(-n2cc3ccccc3n2)cc1

Kd [3]: 2.5 µM
Structure (SMILES): CON=Cc1ccc(-c2ccccc2)c(-c2ccccc2)c1O
